≈ marks a conversion by molar mass, not a printed value. Where “and” joins values, the source holds several entries; their conditions need not be identical. Equal entries are not always repeated.
Assays:
Experiment in all cases: ≥ marks a high value that may be exact or a test limit, other limits are often not marked, values filed in µg/mL are converted to µM
[1] = test system: Escherichia coli ATCC 25922
[2] = test system: Pseudomonas aeruginosa BB2013-100
[3] = test system: Pseudomonas aeruginosa ATCC 27853
[4] = test system: Klebsiella pneumoniae Oschner KP-1
[5] = test system: Acinetobacter baumannii Josh 28
[6] = test system: Escherichia coli JW55034
[7] = test system: Acinetobacter baumannii Josh 230
[8] = test system: Enterobacter cloacae BB2013-32
[9] = test system: Klebsiella aerogenes St. L P63
[10] = test system: Enterobacter cloacae St. L P23
[11] = test system: Escherichia coli BW25113
[12] = test system: Escherichia coli BB2013-30
[13] = test system: Enterobacter cloacae BB2012-181
[14] = test system: Klebsiella pneumoniae J3702
[15] = test system: Pseudomonas aeruginosa J4228
[16] = test system: Enterobacter asburiae St. L P23
[17] = test system: Klebsiella pneumoniae BB2009-209
[18] = test system: Escherichia coli ARLG-1012

CC[C@H](C)[C@H](NC(=O)CN)C(=O)N[C@@H](CCCCN)C(=O)N[C@H](C(=O)N[C@@H](CCCN=C(N)N)C(=O)N[C@@H](CCCCN)C(=O)N[C@@H](CC(C)C)C(=O)N[C@@H](Cc1ccccc1)C(=O)N[C@@H](CCCCN)C(=O)N[C@@H](CCCCN)C(=O)N[C@@H](CC(C)C)C(=O)N[C@@H](CC(C)C)C(=O)N[C@@H](CCCN=C(N)N)C(N)=O)[C@@H](C)CC [GIKIRKLFKKLLR]
MIC [1]: 2.74 µM and 5.48 µM | MIC [2]: 19.8 µM (≈ 32 µg/mL) | MIC [3]: 2.48 µM (≈ 4 µg/mL) | MIC [4]: 19.8 µM (≈ 32 µg/mL) | MIC [5]: 2.48 µM (≈ 4 µg/mL) | MIC [6]: 4.96 µM (≈ 8 µg/mL) | MIC [7]: 9.92 µM (≈ 16 µg/mL) | MIC [8]: 19.8 µM (≈ 32 µg/mL) | MIC [9]: 19.8 µM (≈ 32 µg/mL) | MIC [10]: 19.8 µM (≈ 32 µg/mL) | MIC [11]: 4.96 µM (≈ 8 µg/mL) | MIC [12]: 9.92 µM (≈ 16 µg/mL) | MIC [13]: 19.8 µM (≈ 32 µg/mL) | MIC [14]: 19.8 µM (≈ 32 µg/mL) | MIC [15]: 4.96 µM (≈ 8 µg/mL) | MIC [16]: 19.8 µM (≈ 32 µg/mL) | MIC [17]: 19.8 µM (≈ 32 µg/mL) | MIC [18]: 4.96 µM (≈ 8 µg/mL)

Source: DBAASP
